Measured values as given in ChEMBL document CHEMBL1201862, “PubChem BioAssay data set” (2004).
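96-well plates; 48 h exposure; 5 concentrations. Endpoints by linear interpolation between flanking doses. Not reached: highest tested concentration assigned. At the GI50, growth is halved.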 Active and inactive are the calls of the source. Cut-off read from the data, not from the text of the source: active = GI50 up to about 1.1 µM and inactive = higher.

Key:
Test in all cases: NCI anticancer screen, dose series, 48 h
MDA-MB-435 = system: MDA-MB-435
LOX IMVI = system: LOX IMVI
MCF7 = system: MCF7
UACC-62 = system: UACC-62
SNB-75 = system: SNB-75
T47D = system: T47D
RXF 393 = system: RXF 393
RPMI-8226 = system: RPMI-8226
NCI-H460 = system: NCI-H460
SNB-19 = system: SNB-19
OVCAR-5 = system: OVCAR-5
DU-145 = system: DU-145
HOP-62 = system: HOP-62
HCT-15 = system: HCT-15
Malme-3M = system: Malme-3M
MDA-N = system: MDA-N
MDA-MB-231 = system: MDA-MB-231
HOP-92 = system: HOP-92
U-251 = system: U-251
HCT-116 = system: HCT-116
SF-539 = system: SF-539
SK-MEL-2 = system: SK-MEL-2
UACC-257 = system: UACC-257
HCC 2998 = system: HCC 2998
OVCAR-4 = system: OVCAR-4
SN12C = system: SN12C
SF-295 = system: SF-295
NCI-H23 = system: NCI-H23
KM12 = system: KM12
CCRF-CEM = system: CCRF-CEM
ACHN = system: ACHN
SW-620 = system: SW-620
SK-OV-3 = system: SK-OV-3
EKVX = system: EKVX
COLO 205 = system: COLO 205
OVCAR-8 = system: OVCAR-8
A498 = system: A498
SF-268 = system: SF-268
PC-3 = system: PC-3
HL-60 = system: HL-60
OVCAR-3 = system: OVCAR-3
MOLT-4 = system: MOLT-4
HT-29 = system: HT-29
IGROV-1 = system: IGROV-1
TK-10 = system: TK-10
NCI-H226 = system: NCI-H226
SK-MEL-5 = system: SK-MEL-5
BT-549 = system: BT-549
786-0 = system: 786-0
SK-MEL-28 = system: SK-MEL-28
CAKI-1 = system: CAKI-1
A549 = system: A549
UO-31 = system: UO-31
M14 = system: M14
NCI-H522 = system: NCI-H522
NCI/ADR-RES = system: NCI/ADR-RES
Hs-578T = system: Hs-578T
K562 = system: K562

**Q.** How did the GI50 (MDA-MB-435) turn out when CN(CCNC(=O)c1nn(-c2ccccc2)c2c1ccc1ccccc12)CCNC(=O)c1nn(-c2ccccc2)c2c1ccc1ccccc12 was run?
**A.** 1.97 µM (inactive)

**Q.** What about the GI50 (LOX IMVI) of the same molecule?
**A.** 1.77 µM (inactive)

**Q.** What about the GI50 (MCF7) of the same molecule?
**A.** 1.98 µM (inactive)

**Q.** And the GI50 (UACC-62)?
**A.** 1.77 µM (inactive)

**Q.** What about the GI50 (SNB-75) of the same molecule?
**A.** 2.18 µM (inactive)

**Q.** What about the GI50 (T47D) of the same molecule?
**A.** 2.41 µM (inactive)

**Q.** And the GI50 (RXF 393)?
**A.** 1.62 µM (inactive)

**Q.** And the GI50 (RPMI-8226)?
**A.** 0.202 µM (active)

**Q.** And the GI50 (NCI-H460)?
**A.** 1.41 µM (inactive)

**Q.** What about the GI50 (SNB-19) of the same molecule?
**A.** 2.54 µM (inactive)

**Q.** What about the GI50 (OVCAR-5) of the same molecule?
**A.** 4.49 µM (inactive)

**Q.** And the GI50 (DU-145)?
**A.** 4.85 µM (inactive)

**Q.** And the GI50 (HOP-62)?
**A.** 1.43 µM (inactive)

**Q.** And the GI50 (HCT-15)?
**A.** 1.76 µM

**Q.** And the GI50 (Malme-3M)?
**A.** 2.23 µM (inactive)

**Q.** And the GI50 (MDA-N)?
**A.** 1.75 µM (inactive)

**Q.** What about the GI50 (MDA-MB-231) of the same molecule?
**A.** 1.29 µM (inactive)

**Q.** What about the GI50 (HOP-92) of the same molecule?
**A.** 1.73 µM (inactive)

**Q.** What about the GI50 (U-251) of the same molecule?
**A.** 1.57 µM (inactive)

**Q.** And the GI50 (HCT-116)?
**A.** 1.53 µM (inactive)

**Q.** And the GI50 (SF-539)?
**A.** 1.66 µM (inactive)

**Q.** What about the GI50 (SK-MEL-2) of the same molecule?
**A.** 1.86 µM (inactive)

**Q.** What about the GI50 (UACC-257) of the same molecule?
**A.** 1.71 µM (inactive)

**Q.** And the GI50 (HCC 2998)?
**A.** 1.53 µM (inactive)

**Q.** What about the GI50 (OVCAR-4) of the same molecule?
**A.** 3.39 µM (inactive)

**Q.** And the GI50 (SN12C)?
**A.** 1.88 µM (inactive)

**Q.** And the GI50 (SF-295)?
**A.** 1.61 µM (inactive)

**Q.** What about the GI50 (NCI-H23) of the same molecule?
**A.** 2.51 µM (inactive)

**Q.** What about the GI50 (KM12) of the same molecule?
**A.** 2.37 µM (inactive)

**Q.** What about the GI50 (CCRF-CEM) of the same molecule?
**A.** 2.9 µM (inactive)

**Q.** What about the GI50 (ACHN) of the same molecule?
**A.** 2.11 µM (inactive)

**Q.** What about the GI50 (SW-620) of the same molecule?
**A.** 2.17 µM (inactive)

**Q.** And the GI50 (SK-OV-3)?
**A.** 2.09 µM (inactive)

**Q.** What about the GI50 (EKVX) of the same molecule?
**A.** 1.98 µM (inactive)

**Q.** What about the GI50 (COLO 205) of the same molecule?
**A.** 1.54 µM (inactive)

**Q.** And the GI50 (OVCAR-8)?
**A.** 1.79 µM (inactive)

**Q.** And the GI50 (A498)?
**A.** 2 µM (inactive)

**Q.** And the GI50 (SF-268)?
**A.** 2.38 µM (inactive)

**Q.** And the GI50 (PC-3)?
**A.** 2.13 µM (inactive)

**Q.** What about the GI50 (HL-60) of the same molecule?
**A.** 1.95 µM (inactive)

**Q.** And the GI50 (OVCAR-3)?
**A.** 1.71 µM (inactive)

**Q.** What about the GI50 (MOLT-4) of the same molecule?
**A.** 0.38 µM (active)

**Q.** And the GI50 (HT-29)?
**A.** 2.94 µM (inactive)

**Q.** And the GI50 (IGROV-1)?
**A.** 1.98 µM (inactive)

**Q.** And the GI50 (TK-10)?
**A.** 1.4 µM (inactive)

**Q.** And the GI50 (NCI-H226)?
**A.** 2.29 µM (inactive)

**Q.** And the GI50 (SK-MEL-5)?
**A.** 1.64 µM (inactive)

**Q.** And the GI50 (BT-549)?
**A.** 10.2 µM (inactive)

**Q.** And the GI50 (786-0)?
**A.** 1.67 µM (inactive)

**Q.** And the GI50 (SK-MEL-28)?
**A.** 1.7 µM (inactive)

**Q.** What about the GI50 (CAKI-1) of the same molecule?
**A.** 3.33 µM (inactive)

**Q.** What about the GI50 (A549) of the same molecule?
**A.** 2.94 µM (inactive)

**Q.** And the GI50 (UO-31)?
**A.** 2.07 µM (inactive)

**Q.** And the GI50 (M14)?
**A.** 1.78 µM (inactive)

**Q.** What about the GI50 (NCI-H522) of the same molecule?
**A.** 2.04 µM (inactive)

**Q.** What about the GI50 (NCI/ADR-RES) of the same molecule?
**A.** 2.55 µM (inactive)

**Q.** And the GI50 (Hs-578T)?
**A.** 2.14 µM (inactive)

**Q.** For OCCNc1ncnc2[nH]cnc12, which GI50 (MDA-MB-435) is on record?
**A.** > 100 µM (inactive)

**Q.** And the GI50 (LOX IMVI)?
**A.** > 100 µM (inactive)

**Q.** And the GI50 (MCF7)?
**A.** > 100 µM (inactive)

**Q.** What about the GI50 (UACC-62) of the same molecule?
**A.** > 100 µM (inactive)

**Q.** And the GI50 (SNB-75)?
**A.** 0.296 µM (active)

**Q.** What about the GI50 (T47D) of the same molecule?
**A.** > 100 µM (inactive)

**Q.** What about the GI50 (RXF 393) of the same molecule?
**A.** > 100 µM (inactive)

**Q.** And the GI50 (RPMI-8226)?
**A.** > 100 µM (inactive)

**Q.** And the GI50 (NCI-H460)?
**A.** > 100 µM (inactive)

**Q.** What about the GI50 (SNB-19) of the same molecule?
**A.** > 100 µM (inactive)

**Q.** And the GI50 (OVCAR-5)?
**A.** > 100 µM (inactive)

**Q.** And the GI50 (DU-145)?
**A.** > 100 µM (inactive)

**Q.** What about the GI50 (HOP-62) of the same molecule?
**A.** > 100 µM (inactive)

**Q.** And the GI50 (HCT-15)?
**A.** > 100 µM

**Q.** What about the GI50 (Malme-3M) of the same molecule?
**A.** > 100 µM (inactive)

**Q.** What about the GI50 (MDA-N) of the same molecule?
**A.** > 100 µM (inactive)

**Q.** What about the GI50 (MDA-MB-231) of the same molecule?
**A.** > 100 µM (inactive)

**Q.** What about the GI50 (HOP-92) of the same molecule?
**A.** > 100 µM (inactive)

**Q.** What about the GI50 (U-251) of the same molecule?
**A.** > 100 µM (inactive)

**Q.** What about the GI50 (HCT-116) of the same molecule?
**A.** > 100 µM (inactive)

**Q.** What about the GI50 (SK-MEL-2) of the same molecule?
**A.** > 100 µM (inactive)

**Q.** And the GI50 (UACC-257)?
**A.** > 100 µM (inactive)

**Q.** What about the GI50 (HCC 2998) of the same molecule?
**A.** > 100 µM (inactive)

**Q.** What about the GI50 (OVCAR-4) of the same molecule?
**A.** > 100 µM (inactive)

**Q.** What about the GI50 (SN12C) of the same molecule?
**A.** > 100 µM (inactive)

**Q.** What about the GI50 (SF-295) of the same molecule?
**A.** > 100 µM (inactive)

**Q.** What about the GI50 (NCI-H23) of the same molecule?
**A.** > 100 µM (inactive)

**Q.** What about the GI50 (KM12) of the same molecule?
**A.** > 100 µM (inactive)

**Q.** And the GI50 (ACHN)?
**A.** > 100 µM (inactive)

**Q.** What about the GI50 (SW-620) of the same molecule?
**A.** > 100 µM (inactive)

**Q.** What about the GI50 (SK-OV-3) of the same molecule?
**A.** > 100 µM (inactive)

**Q.** And the GI50 (EKVX)?
**A.** > 100 µM (inactive)

**Q.** And the GI50 (COLO 205)?
**A.** > 100 µM (inactive)

**Q.** And the GI50 (OVCAR-8)?
**A.** > 100 µM (inactive)

**Q.** What about the GI50 (A498) of the same molecule?
**A.** > 100 µM (inactive)

**Q.** What about the GI50 (SF-268) of the same molecule?
**A.** > 100 µM (inactive)

**Q.** What about the GI50 (PC-3) of the same molecule?
**A.** > 100 µM (inactive)

**Q.** And the GI50 (HL-60)?
**A.** > 100 µM (inactive)

**Q.** What about the GI50 (OVCAR-3) of the same molecule?
**A.** > 100 µM (inactive)

**Q.** What about the GI50 (MOLT-4) of the same molecule?
**A.** > 100 µM (inactive)

**Q.** What about the GI50 (HT-29) of the same molecule?
**A.** > 100 µM (inactive)

**Q.** And the GI50 (IGROV-1)?
**A.** > 100 µM (inactive)

**Q.** And the GI50 (TK-10)?
**A.** > 100 µM (inactive)

**Q.** And the GI50 (NCI-H226)?
**A.** > 100 µM (inactive)

**Q.** What about the GI50 (SK-MEL-5) of the same molecule?
**A.** > 100 µM (inactive)

**Q.** What about the GI50 (BT-549) of the same molecule?
**A.** > 100 µM (inactive)

**Q.** What about the GI50 (786-0) of the same molecule?
**A.** > 100 µM (inactive)

**Q.** What about the GI50 (SK-MEL-28) of the same molecule?
**A.** > 100 µM (inactive)

**Q.** And the GI50 (CAKI-1)?
**A.** > 100 µM (inactive)

**Q.** What about the GI50 (A549) of the same molecule?
**A.** > 100 µM (inactive)

**Q.** What about the GI50 (K562) of the same molecule?
**A.** > 100 µM (inactive)

**Q.** What about the GI50 (UO-31) of the same molecule?
**A.** > 100 µM (inactive)

**Q.** What about the GI50 (M14) of the same molecule?
**A.** > 100 µM (inactive)

**Q.** And the GI50 (NCI-H522)?
**A.** > 100 µM (inactive)

**Q.** And the GI50 (NCI/ADR-RES)?
**A.** > 100 µM (inactive)

**Q.** What about the GI50 (Hs-578T) of the same molecule?
**A.** > 100 µM (inactive)
